The results in this text go back to ChEMBL document CHEMBL4477261, “Design, synthesis and evaluation of the multidrug resistance-reversing activity of pyridine acid esters of podophyllotoxin in human leukemia cells” (Bioorg Med Chem Lett, 2016).

The source made the active and inactive calls. The calls are words filed in the database; no cut-off is given here.

The target of test [1] is T1, Mitogen-activated protein kinase; ERK1/ERK2 (Homo sapiens) (UniProt P27361+P28482). Put plainly: Activation of ERK1/2 signalling in human K562/ADR cells assessed as increase in cleaved caspase-9 expression at 0.1 uM after 48 hrs by Western blot analysis relative to control. It counts as cell-based. (In general: Immunoblotting shows a protein as a band on a membrane.)

Test [2] concerns K562/Adr. Put plainly: Induction of apoptosis in human K562/ADR cells assessed as nuclear fragmentation at 0.05 to 0.1 uM after 48 hrs by Hoechst 33342 staining based fluorescent microscopic analysis. It counts as functional, cell-based.
Test [3] deals with T1, Mitogen-activated protein kinase; ERK1/ERK2 (Homo sapiens). As to the kind of experiment: Activation of ERK1/2 signalling in human K562/ADR cells assessed as suppression of CyclinB1 protein expression at 0.05 uM after 48 hrs by Western blot analysis relative to control. It counts as cell-based.
For test [4], the system named is K562/Adr. As to the kind of experiment: Induction of apoptosis in human K562/ADR cells assessed as necrotic cells at 0.1 uM after 48 hrs by Annexin V-APC/7-AAD staining based flow cytometry (reference value: 2.47%). The test is classed as functional. Background: Flow cytometry measures light scatter and fluorescence of single cells or particles in a stream.
Test [5] concerns K562/Adr. Put plainly: Induction of apoptosis in human K562/ADR cells assessed as late apoptotic cells at 0.05 uM after 48 hrs by Annexin V-APC/7-AAD staining based flow cytometry (reference value: 3.89%). The test is classed as functional.
In test [6] the test system is K562/Adr. As to the kind of experiment: Cell cycle arrest in human K562/ADR cells assessed as accumulation in S phase at 0.1 uM after 48 hrs by propidium iodide staining based flow cytometry (reference value: 43.39 +/- 0.69%). The test is classed as functional.
Test [7] has as its target T1, Mitogen-activated protein kinase; ERK1/ERK2 (Homo sapiens). As to the kind of experiment: Activation of ERK1/2 signalling in human K562/ADR cells assessed as increase in cleaved caspase-9 expression at 0.1 uM after 48 hrs in presence of ERK1/2 inhibitor U0126 by Western blot analysis relative to control. The test is classed as cell-based.
For test [8] the target is unchanged. Put plainly: Activation of ERK1/2 signalling in human K562/ADR cells assessed as increase in cleaved caspase-8 expression at 0.1 uM after 48 hrs in presence of ERK1/2 inhibitor U0126 by Western blot analysis relative to control. It counts as cell-based.

T1 sequence (P27361 whole entry, looked up): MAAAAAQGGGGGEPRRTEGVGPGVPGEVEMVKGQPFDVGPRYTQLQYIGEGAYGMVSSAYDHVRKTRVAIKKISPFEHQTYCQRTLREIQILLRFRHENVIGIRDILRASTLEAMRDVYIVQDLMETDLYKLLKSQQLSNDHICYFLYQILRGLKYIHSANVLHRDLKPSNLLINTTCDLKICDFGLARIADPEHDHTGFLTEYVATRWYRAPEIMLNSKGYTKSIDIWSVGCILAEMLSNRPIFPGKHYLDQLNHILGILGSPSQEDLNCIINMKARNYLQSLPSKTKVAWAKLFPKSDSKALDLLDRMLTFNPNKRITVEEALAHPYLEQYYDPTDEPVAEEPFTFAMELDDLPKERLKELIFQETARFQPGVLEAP
T1 sequence (P28482 whole entry, looked up): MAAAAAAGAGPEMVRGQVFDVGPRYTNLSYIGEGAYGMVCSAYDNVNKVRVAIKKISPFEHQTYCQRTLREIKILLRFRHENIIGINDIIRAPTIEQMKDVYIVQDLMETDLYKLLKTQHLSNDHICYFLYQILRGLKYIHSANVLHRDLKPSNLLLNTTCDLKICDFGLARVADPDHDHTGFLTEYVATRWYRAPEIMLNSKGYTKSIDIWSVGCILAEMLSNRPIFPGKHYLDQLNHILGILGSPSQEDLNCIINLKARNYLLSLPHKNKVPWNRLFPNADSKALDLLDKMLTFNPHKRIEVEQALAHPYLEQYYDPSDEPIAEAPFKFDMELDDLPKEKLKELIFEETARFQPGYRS

For the compound `COc1cc([C@@H]2c3cc4c(cc3[C@H](OC(=O)c3cccc(Br)n3)[C@H]3COC(=O)[C@H]23)OCO4)cc(OC)c1OC`, the fold change (FC) in test [1] was found to be 0.75; in test [3], 0.25; in test [7], 0.59; in test [8] it was 0.4. The outcome in the test with K562/Adr [2] was Active. Also, the Activity in the test on K562/Adr [4] is 5.82%; in the test with K562/Adr [5], 18.84%; with K562/Adr [6], 64.17%.
